Assay results published in publication PMC7236083 (Hormones & cancer, 2020).

What was measured:
[1] = molecular target: T1, glucocorticoid receptor (GR) (Homo sapiens, UniProt P04150); assay: fluorescence polarization competitive binding assay
T1 sequence (P04150 1-777): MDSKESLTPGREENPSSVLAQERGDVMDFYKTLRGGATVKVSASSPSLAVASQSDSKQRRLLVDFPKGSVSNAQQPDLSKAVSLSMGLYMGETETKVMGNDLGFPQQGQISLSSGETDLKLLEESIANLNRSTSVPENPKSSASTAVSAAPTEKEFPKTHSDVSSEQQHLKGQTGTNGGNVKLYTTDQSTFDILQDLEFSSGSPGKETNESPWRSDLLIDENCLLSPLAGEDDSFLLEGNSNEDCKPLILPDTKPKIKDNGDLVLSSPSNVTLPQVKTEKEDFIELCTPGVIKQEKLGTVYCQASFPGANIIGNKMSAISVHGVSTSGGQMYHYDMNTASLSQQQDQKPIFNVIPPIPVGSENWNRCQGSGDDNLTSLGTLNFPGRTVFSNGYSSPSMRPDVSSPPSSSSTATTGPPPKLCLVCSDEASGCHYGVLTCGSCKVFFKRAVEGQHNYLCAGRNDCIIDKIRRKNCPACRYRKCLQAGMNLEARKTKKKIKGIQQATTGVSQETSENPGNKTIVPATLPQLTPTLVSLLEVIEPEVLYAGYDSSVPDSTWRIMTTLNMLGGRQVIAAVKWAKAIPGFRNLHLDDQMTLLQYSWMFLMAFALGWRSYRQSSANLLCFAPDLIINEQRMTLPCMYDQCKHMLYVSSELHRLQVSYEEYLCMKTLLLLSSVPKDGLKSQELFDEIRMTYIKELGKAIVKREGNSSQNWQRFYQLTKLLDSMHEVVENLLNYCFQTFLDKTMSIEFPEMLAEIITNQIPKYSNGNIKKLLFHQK

[2] = molecular target: T2, progesterone receptor (PR) (Homo sapiens, UniProt P06401); assay: as above
T2 sequence (P06401 675-933): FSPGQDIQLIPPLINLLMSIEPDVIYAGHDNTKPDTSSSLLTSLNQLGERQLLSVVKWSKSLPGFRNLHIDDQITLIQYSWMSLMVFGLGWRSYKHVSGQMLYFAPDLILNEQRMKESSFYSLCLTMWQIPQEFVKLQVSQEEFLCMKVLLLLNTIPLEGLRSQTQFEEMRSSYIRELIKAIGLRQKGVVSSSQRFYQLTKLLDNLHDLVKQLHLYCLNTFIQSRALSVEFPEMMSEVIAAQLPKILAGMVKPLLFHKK

Which results are given for `O=c1cc(-c2ccccc2)oc2cc(O)c(O)c(O)c12` [baicalein]?
IC50 [1]: 19.3 µM; IC50 [2]: 15.3 µM
